Experimental data reported in PubChem BioAssay AID180 (DTP/NCI, 2004).
Values joined by “and” are separate entries in the source; they are usually repeats but may differ in a detail not shown here. Equal entries are not always repeated.

Tested on: BDF1 mice, Adenocarcinoma 755 s.c., tumor weight T/C
Test: NCI In Vivo Anticancer Drug Screen. Data for tumor model Adenocarcinoma 755 (subcutaneous) in B6D2F1 (BDF1) mice
Settings: endpoint: mean tumor weight, higher = larger tumour
How it was run: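 Values express treated (T) relative to vehicle-dosed control (C) animals, based on survival or tumour size measured after compound treatment of mice bearing a transplanted tumour.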

[1] = dose: 125.0 mg/kg/injection, schedule: Q01DX011 (ip), vehicle: methylcellulose (MC)
[2] = dose: 8.0 mg/kg/injection, schedule: Q01DX011 (ip), vehicle: other

Q: Which T/C (dose: 8.63 mg/kg/injection, schedule: Q01DX011 (ip), vehicle: carboxymethylcellulose (CMC)) does the source give for `CCNc1nncs1` here?
A: Its T/C is 65 % of control.

Q: What about the T/C (dose: 14.22 mg/kg/injection, schedule: Q01DX011 (ip), vehicle: carboxymethylcellulose (CMC)) of the same compound?
A: Its T/C is 73 % of control.

Q: What about the T/C (dose: 17.25 mg/kg/injection, schedule: Q01DX011 (ip), vehicle: carboxymethylcellulose (CMC)) of the same compound?
A: The T/C was 77 % of control.

Q: What about the T/C (dose: 28.45 mg/kg/injection, schedule: Q01DX011 (ip), vehicle: carboxymethylcellulose (CMC)) of the same compound?
A: The T/C was 84 % of control.

Q: And the T/C (dose: 31.25 mg/kg/injection, schedule: Q01DX011 (ip), vehicle: methylcellulose (MC))?
A: The T/C was 62 % of control.

Q: What about the T/C (dose: 34.5 mg/kg/injection, schedule: Q01DX011 (ip), vehicle: carboxymethylcellulose (CMC)) of the same compound?
A: The T/C was 101 % of control.

Q: What about the T/C (dose: 56.9 mg/kg/injection, schedule: Q01DX011 (ip), vehicle: carboxymethylcellulose (CMC)) of the same compound?
A: The T/C was 89 % of control and 80 % of control and 84 % of control.

Q: What about the T/C (dose: 62.5 mg/kg/injection, schedule: Q01DX011 (ip), vehicle: methylcellulose (MC)) of the same compound?
A: The T/C was 49 % of control.

Q: What about the T/C (dose: 69.0 mg/kg/injection, schedule: Q01DX011 (ip), vehicle: carboxymethylcellulose (CMC)) of the same compound?
A: The T/C was 103 % of control.

Q: What about the T/C (dose: 75.8 mg/kg/injection, schedule: Q01DX011 (ip), vehicle: carboxymethylcellulose (CMC)) of the same compound?
A: Its T/C is 58 % of control and 75 % of control.

Q: What about the T/C [1] of the same compound?
A: Its T/C is 6 % of control.

Q: With `CNc1nc(SCc2ccccc2)ncc1C` as the compound, how does the T/C (dose: 31.0 mg/kg/injection, schedule: Q01DX011 (ip), vehicle: methylcellulose (MC)) read?
A: Its T/C is 60 % of control.

Q: What about the T/C [1] of the same compound?
A: The T/C was 82 % of control.

Q: What about the T/C (dose: 250.0 mg/kg/injection, schedule: Q01DX011 (ip), vehicle: methylcellulose (MC)) of the same compound?
A: Its T/C is 52 % of control.

Q: With `O=c1cn[nH]c(=O)[nH]1` as the compound, how does the T/C (dose: 110.1 mg/kg/injection, schedule: Q01DX011 (ip), vehicle: carboxymethylcellulose (CMC)) read?
A: Its T/C is 104 % of control.

Q: What about the T/C (dose: 125.0 mg/kg/injection, schedule: Q01DX011 (ip), vehicle: carboxymethylcellulose (CMC)) of the same compound?
A: The T/C was 66 % of control.

Q: What about the T/C (dose: 220.2 mg/kg/injection, schedule: Q01DX011 (ip), vehicle: carboxymethylcellulose (CMC)) of the same compound?
A: Its T/C is 80 % of control.

Q: And the T/C (dose: 250.0 mg/kg/injection, schedule: Q01DX011 (ip), vehicle: carboxymethylcellulose (CMC))?
A: Its T/C is 107 % of control.

Q: What about the T/C (dose: 440.4 mg/kg/injection, schedule: Q01DX011 (ip), vehicle: carboxymethylcellulose (CMC)) of the same compound?
A: Its T/C is 84 % of control.

Q: What about the T/C (dose: 500.0 mg/kg/injection, schedule: Q01DX011 (ip), vehicle: carboxymethylcellulose (CMC)) of the same compound?
A: Its T/C is 87 % of control.

Q: And the T/C (dose: 880.8 mg/kg/injection, schedule: Q01DX011 (ip), vehicle: carboxymethylcellulose (CMC))?
A: The T/C was 77 % of control.

Q: And the T/C (dose: 1000.0 mg/kg/injection, schedule: Q01DX011 (ip), vehicle: carboxymethylcellulose (CMC))?
A: Its T/C is 80 % of control.

Q: Which results are given for `COC(=O)C1=COC(C)C2CN3CCc4c([nH]c5cc(OC)ccc45)C3CC12` (configuration not stated)?
A: T/C (dose: 22.0 mg/kg/injection, schedule: Q01DX011 (ip), vehicle: other): 116 % of control; T/C (dose: 44.0 mg/kg/injection, schedule: Q01DX011 (ip), vehicle: other): 98 % of control; T/C (dose: 87.5 mg/kg/injection, schedule: Q01DX011 (ip), vehicle: other): 80 % of control

Q: How did the T/C (dose: 25.0 mg/kg/injection, schedule: Q01DX011 (ip), vehicle: carboxymethylcellulose (CMC)) turn out when `COc1cc(C(=O)[O][Hg][CH2]C2CC(O)CC([CH2][Hg][O]C(=O)c3cc(OC)c(OC)c(OC)c3)O2)cc(OC)c1OC` (configuration not stated) was run?
A: The T/C was 61 % of control.

Q: What does the source list for `Nc1ncnc2c1cnn2Cc1ccc(Cl)cc1`?
A: T/C (dose: 9.5 mg/kg/injection, schedule: Q01DX011 (ip), vehicle: carboxymethylcellulose (CMC)): 98 % of control; T/C (dose: 75.0 mg/kg/injection, schedule: Q01DX011 (ip), vehicle: carboxymethylcellulose (CMC)): 38 % of control

Q: For `O=C(CCBr)NCCCCCCNC(=O)CCBr`, which T/C (dose: 56.0 mg/kg/injection, schedule: Q01DX011 (ip), vehicle: methylcellulose (MC)) is on record?
A: The T/C was 114 % of control.

Q: What about the T/C (dose: 113.0 mg/kg/injection, schedule: Q01DX011 (ip), vehicle: methylcellulose (MC)) of the same compound?
A: Its T/C is 67 % of control.

Q: What about the T/C (dose: 225.0 mg/kg/injection, schedule: Q01DX011 (ip), vehicle: methylcellulose (MC)) of the same compound?
A: Its T/C is 114 % of control.

Q: How did the T/C (dose: 0.44 mg/kg/injection, schedule: Q01DX011 (ip), vehicle: methylcellulose (MC)) turn out when `CCn1cnc2c(=S)nc(N)[nH]c21` was run?
A: Its T/C is 108 % of control.

Q: And the T/C (dose: 0.88 mg/kg/injection, schedule: Q01DX011 (ip), vehicle: methylcellulose (MC))?
A: Its T/C is 66 % of control.

Q: What about the T/C (dose: 1.75 mg/kg/injection, schedule: Q01DX011 (ip), vehicle: methylcellulose (MC)) of the same compound?
A: Its T/C is 33 % of control.

Q: What about the T/C (dose: 3.5 mg/kg/injection, schedule: Q01DX011 (ip), vehicle: methylcellulose (MC)) of the same compound?
A: The T/C was 3 % of control.

Q: With `CCN(CC)Cc1nc2c(c(=O)n(C)c(=O)n2C)n1C` as the compound, how does the T/C (dose: 30.0 mg/kg/injection, schedule: Q01DX011 (ip), vehicle: methylcellulose (MC)) read?
A: Its T/C is 93 % of control.

Q: What about the T/C (dose: 60.0 mg/kg/injection, schedule: Q01DX011 (ip), vehicle: methylcellulose (MC)) of the same compound?
A: The T/C was 54 % of control.

Q: What about the T/C (dose: 120.0 mg/kg/injection, schedule: Q01DX011 (ip), vehicle: methylcellulose (MC)) of the same compound?
A: The T/C was 40 % of control.

Q: What does the source list for `CCN(CC)c1ccc2cc3ccc(=[N+](CC)CC)cc-3oc2c1`?
A: T/C (dose: 0.64 mg/kg/injection, schedule: Q01DX011 (ip), vehicle: carboxymethylcellulose (CMC)): 33 % of control; T/C (dose: 0.66 mg/kg/injection, schedule: Q01DX011 (ip), vehicle: carboxymethylcellulose (CMC)): 47 % of control; T/C (dose: 1.27 mg/kg/injection, schedule: Q01DX011 (ip), vehicle: carboxymethylcellulose (CMC)): 119 % of control; T/C (dose: 1.32 mg/kg/injection, schedule: Q01DX011 (ip), vehicle: carboxymethylcellulose (CMC)): 90 % of control; T/C (dose: 1.7 mg/kg/injection, schedule: Q01DX011 (ip), vehicle: carboxymethylcellulose (CMC)): 91 % of control; T/C (dose: 2.64 mg/kg/injection, schedule: Q01DX011 (ip), vehicle: carboxymethylcellulose (CMC)): 81 % of control; T/C (dose: 4.0 mg/kg/injection, schedule: Q01DX011 (ip), vehicle: other): 115 % of control; T/C (dose: 5.0 mg/kg/injection, schedule: Q01DX011 (ip), vehicle: methylcellulose (MC)): 70 % of control; T/C (dose: 5.1 mg/kg/injection, schedule: Q01DX011 (ip), vehicle: carboxymethylcellulose (CMC)): 53 % of control; T/C (dose: 5.28 mg/kg/injection, schedule: Q01DX011 (ip), vehicle: carboxymethylcellulose (CMC)): 100 % of control; T/C [2]: 114 % of control; T/C (dose: 12.0 mg/kg/injection, schedule: Q01DX011 (ip), vehicle: other): 90 % of control; T/C (dose: 15.0 mg/kg/injection, schedule: Q01DX011 (ip), vehicle: methylcellulose (MC)): 75 % of control

Q: How did the T/C (dose: 27.5 mg/kg/injection, schedule: Q01DX011 (ip), vehicle: carboxymethylcellulose (CMC)) turn out when `O=S1(=O)OCc2ccccc21` was run?
A: The T/C was 113 % of control.

Q: And the T/C (dose: 27.5 mg/kg/injection, schedule: Q01DX011 (ip), vehicle: methylcellulose (MC))?
A: The T/C was 118 % of control.

Q: What about the T/C (dose: 55.0 mg/kg/injection, schedule: Q01DX011 (ip), vehicle: carboxymethylcellulose (CMC)) of the same compound?
A: Its T/C is 68 % of control.

Q: What about the T/C (dose: 55.0 mg/kg/injection, schedule: Q01DX011 (ip), vehicle: methylcellulose (MC)) of the same compound?
A: The T/C was 98 % of control.

Q: What about the T/C (dose: 110.0 mg/kg/injection, schedule: Q01DX011 (ip), vehicle: methylcellulose (MC)) of the same compound?
A: The T/C was 17 % of control.

Q: For `C[C@]12CCC(=O)C=C1CC[C@@H]1[C@@H]2[C@@H](O)C[C@@]2(C)[C@H]1CC[C@]2(O)C(=O)COC(=O)CCC(=O)O`, which T/C (dose: 700.0 mg/kg/injection, schedule: Q01DX011 (sc), vehicle: steriod suspending solution) is on record?
A: The T/C was 10 % of control.

Q: What does the source list for `CCOC(=O)c1cnc(SCc2ccccc2Cl)nc1N1CC1`?
A: T/C (dose: 8.0 mg/kg/injection, schedule: Q01DX011 (ip), vehicle: carboxymethylcellulose (CMC)): 54 % of control; T/C [2]: 110 % of control; T/C (dose: 16.0 mg/kg/injection, schedule: Q01DX011 (ip), vehicle: carboxymethylcellulose (CMC)): 75 % of control; T/C (dose: 16.0 mg/kg/injection, schedule: Q01DX011 (ip), vehicle: other): 70 % of control; T/C (dose: 28.0 mg/kg/injection, schedule: Q01DX011 (ip), vehicle: carboxymethylcellulose (CMC)): 29 % of control; T/C (dose: 28.0 mg/kg/injection, schedule: Q01DX011 (ip), vehicle: other): 62 % of control; T/C (dose: 56.0 mg/kg/injection, schedule: Q01DX011 (ip), vehicle: carboxymethylcellulose (CMC)): 16 % of control; T/C (dose: 56.0 mg/kg/injection, schedule: Q01DX011 (ip), vehicle: other): 22 % of control

Q: Which T/C (dose: 75.0 mg/kg/injection, schedule: Q01DX011 (sc), vehicle: steriod suspending solution) does the source give for `C[C@]12CCC(=O)C=C1CC[C@H]1[C@@H]3CC[C@@]4(OCC4=O)[C@@]3(C)C[C@H](O)[C@@]12F` here?
A: The T/C was 13 % of control.

Q: What about the T/C (dose: 150.0 mg/kg/injection, schedule: Q01DX011 (sc), vehicle: steriod suspending solution) of the same compound?
A: Its T/C is 11 % of control.
